Inconclusive results and toxic doses are left out. Cut-off read from the data, not from the text of the source: active = T/C of 150% or more; inactive = T/C below 125%.
Test system: L1210 leukemia ip in BDF1 mice, survival T/C
Experiment: NCI In Vivo Anticancer Drug Screen. Data for tumor model L1210 Leukemia (intraperitoneal) in B6D2F1 (BDF1) mice
Conditions: endpoint: mean survival time, higher = longer survival
How it was run: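 Tumor was transplanted into mice, which were then dosed with test compound or vehicle alone. Survival was recorded for each group, and the treated figure was expressed relative to the control figure.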

[1] = dose: 100.0 mg/kg/injection, schedule: Q01DX001 (ip), vehicle: saline with Tween-80
[2] = dose: 200.0 mg/kg/injection, schedule: Q01DX001 (ip), vehicle: saline with Tween-80
[3] = dose: 400.0 mg/kg/injection, schedule: Q01DX001 (ip), vehicle: saline with Tween-80
[4] = dose: 75.0 mg/kg/injection, schedule: Q01DX001 (ip), vehicle: saline
[5] = dose: 150.0 mg/kg/injection, schedule: Q01DX001 (ip), vehicle: saline
[6] = dose: 300.0 mg/kg/injection, schedule: Q01DX001 (ip), vehicle: saline
[7] = dose: 100.0 mg/kg/injection, schedule: Q04DX003 (ip), vehicle: saline with Tween-80
[8] = dose: 200.0 mg/kg/injection, schedule: Q04DX003 (ip), vehicle: saline with Tween-80
[9] = dose: 6.25 mg/kg/injection, schedule: Q01DX009 (ip), vehicle: Klucel (hydroxypropylcellulose) (HPC)
[10] = dose: 12.5 mg/kg/injection, schedule: Q01DX009 (ip), vehicle: Klucel (hydroxypropylcellulose) (HPC)
[11] = dose: 100.0 mg/kg/injection, schedule: Q04DX003 (ip), vehicle: Klucel (hydroxypropylcellulose) (HPC)
[12] = dose: 200.0 mg/kg/injection, schedule: Q04DX003 (ip), vehicle: Klucel (hydroxypropylcellulose) (HPC)
[13] = dose: 400.0 mg/kg/injection, schedule: Q04DX003 (ip), vehicle: Klucel (hydroxypropylcellulose) (HPC)
[14] = dose: 100.0 mg/kg/injection, schedule: Q01DX009 (ip), vehicle: Klucel (hydroxypropylcellulose) (HPC)
[15] = dose: 100.0 mg/kg/injection, schedule: Q04DX003 (ip), vehicle: saline
[16] = dose: 200.0 mg/kg/injection, schedule: Q01DX009 (ip), vehicle: Klucel (hydroxypropylcellulose) (HPC)
[17] = dose: 200.0 mg/kg/injection, schedule: Q04DX003 (ip), vehicle: saline
[18] = dose: 400.0 mg/kg/injection, schedule: Q01DX009 (ip), vehicle: Klucel (hydroxypropylcellulose) (HPC)
[19] = dose: 400.0 mg/kg/injection, schedule: Q04DX003 (ip), vehicle: saline
[20] = dose: 50.0 mg/kg/injection, schedule: Q04DX003 (ip), vehicle: saline with Tween-80
[21] = dose: 25.0 mg/kg/injection, schedule: Q04DX003 (ip), vehicle: saline
[22] = dose: 50.0 mg/kg/injection, schedule: Q04DX003 (ip), vehicle: saline
[23] = dose: 100.0 mg/kg/injection, schedule: Q01DX001 (ip), vehicle: carboxymethylcellulose (CMC)
[24] = dose: 200.0 mg/kg/injection, schedule: Q01DX001 (ip), vehicle: carboxymethylcellulose (CMC)
[25] = dose: 400.0 mg/kg/injection, schedule: Q01DX001 (ip), vehicle: carboxymethylcellulose (CMC)
[26] = dose: 100.0 mg/kg/injection, schedule: Q01DX001 (ip), vehicle: saline
[27] = dose: 200.0 mg/kg/injection, schedule: Q01DX001 (ip), vehicle: saline
[28] = dose: 400.0 mg/kg/injection, schedule: Q01DX001 (ip), vehicle: saline
[29] = dose: 100.0 mg/kg/injection, schedule: Q01DX001 (ip), vehicle: Klucel (hydroxypropylcellulose) (HPC)
[30] = dose: 200.0 mg/kg/injection, schedule: Q01DX001 (ip), vehicle: Klucel (hydroxypropylcellulose) (HPC)
[31] = dose: 400.0 mg/kg/injection, schedule: Q01DX001 (ip), vehicle: Klucel (hydroxypropylcellulose) (HPC)

Measured: T/C

Clc1ccc(C2=NC(c3ccccc3)N3C2C3c2ccccc2)cc1 (stereo not drawn)
inactive: [1] 95 % of control | [2] 89 % of control | [3] 89 % of control

S=c1nc[nH]c2n[nH]nc12
inactive: dose: 12.5 mg/kg/injection, schedule: Q01DX001 (ip), vehicle: saline with Tween-80 104 % of control | dose: 25.0 mg/kg/injection, schedule: Q01DX001 (ip), vehicle: saline with Tween-80 103 % of control | dose: 50.0 mg/kg/injection, schedule: Q01DX001 (ip), vehicle: saline with Tween-80 98 % of control | [1] 98 % of control | [2] 101 % of control | [3] 103 % of control

O=C1C=C(Nc2ccc(S(=O)(=O)c3ccc(NC4=CC(=O)C(=O)c5ccccc54)cc3)cc2)c2ccccc2C1=O
inactive: [4] 93 % of control | [5] 96 % of control | [6] 96 % of control

O=C(CCl)NC(CO)C(=O)O (stereo not drawn)
inactive: dose: 100.0 mg/kg/injection, schedule: Q01DX009 (ip), vehicle: saline with Tween-80 89 % of control | [7] 103 % of control | dose: 200.0 mg/kg/injection, schedule: Q01DX009 (ip), vehicle: saline with Tween-80 87 % of control | [8] 94 % of control

O=[As](O)(O)CCCc1ccccc1
inactive: [9] 108 % of control | [10] 108 % of control

COC(=O)/C=C/c1ccc(OC)c(OC)c1
inactive: [11] 93 % of control | [12] 95 % of control | [13] 102 % of control

O=C(c1ccccc1Br)C1C(c2ccccc2)N1C1CCCCC1 (stereo not drawn)
inactive: dose: 50.0 mg/kg/injection, schedule: Q04DX003 (ip), vehicle: Klucel (hydroxypropylcellulose) (HPC) 102 % of control | [11] 102 % of control | [12] 98 % of control | [13] 93 % of control

CC(C)(C)C(=O)Nc1n[nH]c(C#N)c1C#N
inactive: dose: 50.0 mg/kg/injection, schedule: Q04DX002 (ip), vehicle: other 95 % of control | dose: 100.0 mg/kg/injection, schedule: Q04DX002 (ip), vehicle: other 106 % of control | dose: 200.0 mg/kg/injection, schedule: Q04DX002 (ip), vehicle: other 113 % of control

CC(C)(C)C1CCC(S(=O)(=O)c2ccccc2)C(Cl)C1 (stereo not drawn)
inactive: [14] 102 % of control | [15] 102 % of control | [16] 104 % of control | [17] 96 % of control | [18] 104 % of control | [19] 93 % of control

CCCC[n+]1[nH]oc(=O)c1C(=O)[O-]
inactive: [11] 98 % of control

COC(CBr)OC
inactive: dose: 10.0 mg/kg/injection, schedule: Q01DX009 (ip), vehicle: saline 95 % of control | dose: 10.0 mg/kg/injection, schedule: Q04DX003 (ip), vehicle: saline 98 % of control | dose: 20.0 mg/kg/injection, schedule: Q01DX009 (ip), vehicle: saline 95 % of control | dose: 20.0 mg/kg/injection, schedule: Q04DX003 (ip), vehicle: saline 101 % of control | dose: 25.0 mg/kg/injection, schedule: Q04DX003 (ip), vehicle: saline with Tween-80 98 % of control | dose: 40.0 mg/kg/injection, schedule: Q01DX009 (ip), vehicle: saline 104 % of control | dose: 40.0 mg/kg/injection, schedule: Q04DX003 (ip), vehicle: saline 108 % of control | [20] 98 % of control

C=CC(OC)OC
inactive: [21] 95 % of control | [22] 93 % of control

O=C(O)/C=C\C(=O)NCCCNC(=O)/C=C\C(=O)O
inactive: [23] 101 % of control | [24] 96 % of control | [25] 93 % of control

Nc1ccccc1Nc1ccc(-c2ccc(Nc3ccccc3N)cc2)cc1
inactive: [26] 94 % of control | [27] 100 % of control | [28] 92 % of control

CCCCCCCCSCCO
inactive: dose: 12.0 mg/kg/injection, schedule: Q01DX009 (ip), vehicle: saline with Tween-80 104 % of control | dose: 25.0 mg/kg/injection, schedule: Q01DX009 (ip), vehicle: saline with Tween-80 101 % of control | dose: 50.0 mg/kg/injection, schedule: Q01DX009 (ip), vehicle: saline with Tween-80 95 % of control | [20] 98 % of control | [7] 96 % of control | [8] 94 % of control | dose: 400.0 mg/kg/injection, schedule: Q04DX003 (ip), vehicle: saline with Tween-80 98 % of control

Clc1c(C(Cl)(Cl)Cl)nc2ccccc2c1Br
inactive: [9] 101 % of control | [10] 97 % of control | dose: 25.0 mg/kg/injection, schedule: Q01DX009 (ip), vehicle: Klucel (hydroxypropylcellulose) (HPC) 97 % of control

CC(=O)NCCCCCC(=O)Nc1ccc(Cl)c(Cl)c1
inactive: [23] 94 % of control | [24] 92 % of control | [25] 92 % of control

CCC(C)C(CCCCN1CCOCC1)(CNC(=O)CN(CC)CC)c1cccc2ccccc12 (stereo not drawn)
inactive: dose: 12.5 mg/kg/injection, schedule: Q04DX003 (ip), vehicle: saline 104 % of control | [21] 98 % of control | [22] 108 % of control

C[N+]1(C)C2CCCC1CC(=O)NC2 (stereo not drawn)
inactive: [4] 107 % of control | [5] 104 % of control | [6] 112 % of control

CCn1ncc2ccccc2c1=O
inactive: [26] 96 % of control | [27] 97 % of control

O=C1NC(=O)C2(CCCC2)N1
inactive: [26] 102 % of control | [27] 108 % of control | [28] 102 % of control

[Br][Ce]([Br])[Br]
inactive: [15] 91 % of control | [17] 94 % of control | [19] 94 % of control

Cc1c(C)c([N+](=O)[O-])c(/C=C/C(=O)O)c(C)c1[N+](=O)[O-]
inactive: [11] 97 % of control | [12] 86 % of control

CS(=O)(=O)OC1C2(c3ccccc3)C=CCC1(c1ccccc1)C(c1ccccc1)=C2c1ccccc1 (stereo not drawn)
inactive: [29] 98 % of control | [30] 101 % of control | [31] 98 % of control

OCC1OC(n2ccc3c([Se]Cc4ccccc4)ncnc32)C(O)C1O (stereo not drawn)
inactive: dose: 0.78 mg/kg/injection, schedule: Q01DX009 (ip), vehicle: saline 101 % of control | dose: 1.56 mg/kg/injection, schedule: Q01DX009 (ip), vehicle: saline 105 % of control | dose: 3.12 mg/kg/injection, schedule: Q01DX009 (ip), vehicle: saline 109 % of control | dose: 6.25 mg/kg/injection, schedule: Q01DX009 (ip), vehicle: saline 86 % of control | dose: 12.5 mg/kg/injection, schedule: Q01DX005 (ip), vehicle: saline 100 % of control | dose: 25.0 mg/kg/injection, schedule: Q01DX005 (ip), vehicle: saline 101 % of control

CCOC(=O)c1cnc(C(Cl)(Cl)Cl)[nH]c1=O
inactive: [29] 94 % of control | [30] 99 % of control | [31] 92 % of control

C/C=C/C(=O)Nc1ccccc1
inactive: dose: 50.0 mg/kg/injection, schedule: Q01DX001 (ip), vehicle: carboxymethylcellulose (CMC) 97 % of control | [23] 100 % of control | [24] 113 % of control

CSc1ccc(NC(=O)N(Cc2ccccc2)c2ccccc2)cc1
inactive: [14] 106 % of control | [16] 101 % of control | [18] 95 % of control
